Data taken from patent US20180050078A1, “COMPOSITION FOR IMPROVING OR PREVENTING NONALCOHOLIC FATTY LIVER” (KOHJIN LIFE SCIENCES CO., LTD., priority 2015, published 2018).

Tested on: Mice (C57/B6J) fed with high-fat food
Text: Mice (C57/B6J, 8 weeks old male) were divided into 4 groups (5 animals each), and the first group (DB) was freely fed with ordinary food (CertifiedDiet “MF” manufactured by Oriental Yeast Co., ltd.). The second group (HFD) was freely fed with high-fat food (High Fat Diet 32, manufactured by CLEA Japan, Inc.), […].
When the mouse was 20 weeks old, the body weight, the liver weight, the serum aspartate aminotransferase (AST), the alanine aminotransferase (ALT), the serum triglyceride (TG), the free fatty acid value (FFA) and the total cholesterol value (T-cho) were measured.

[1] = HFD6 (6 mg/kg/day) and HFD60 (60 mg/kg/day) groups in comparison to HFD group, 20 weeks old
[2] = high-fat food mice, glutathione in water 6 or 60 mg/kg/day, 20 weeks old

## N[C@@H](CCC(=O)N[C@@H](CS)C(=O)NCC(=O)O)C(=O)O [glutathione]
[1]
  FFA (free fatty acid value): significant decrease
  T-cho (total cholesterol value): significant decrease
  TG (triglyceride value): significant decrease
HFD6 group compared with HFD60 group
  serum AST, ALT, TG, FFA and T-cho: dose dependence: decrease dependently on the concentration
All of the groups (DB, HFD, HFD6, HFD60)
  consumption amounts of feed and water: no significant difference
high-fat food mice, glutathione 6 or 60 mg/kg/day
  deposition of fat on the liver by high-fat food: suppressed
[2]
  body weight: decrease of the body weight was recognized
  liver weight: decreased dependently on the concentration
  ratio of liver weight/body weight: decrease of the body weight ratio was also recognized
